Experimental data published in ChEMBL document CHEMBL1122717, “Oxidation of sparteines by cytochrome P-450: evidence against the formation of N-oxides” (J Med Chem, 1984).

Species on record: Rattus norvegicus
Experiment: Compound was evaluated for percent inhibition of antiarrhythmic activity catalyzed by cytochrome P-450 UT-H in liver microsomes of rats
Format: functional
Conditions: dose or concentration not given here

## C1CCN2C[C@@H]3C[C@@H](CN4CCCC[C@@H]34)[C@H]2C1
  inhibition: > 95%
